The source of these data is US20130131018A1, “SUBSTITUTED ISOQUINOLINES AND THEIR USE AS TUBULIN POLYMERIZATION INHIBITORS” (Exonhit S.A., priority 2010, published 2013).

By IC50 is commonly meant the concentration that gives 50% inhibition. Broadly, the inhibition is the relative decrease from the control value, in per cent.

One test concerns K562 cell line. Briefly: MTT assay: cytotoxicity against the K562 cell line. The class given is cell-based. Particulars: K562 cells, 72 h, growth inhibition. As to the method: Assessment of Cell Viability via MTT Assay: Cytotoxicity of compounds against the K562 cell line was assessed using the [3-(4,5-dimethylthiazol-2-yl)-2,5-diphenyl tetrazolium bromide] (MTT) assay. Fifteen thousand tumor cells were seeded into wells of flat-bottomed 96-well plates. An amount of 2 μL of a dilution series of each compound dissolved in DMSO was added to 198 μL of appropriate growth medium at three replicates per concentration and the plates were incubated in a 5% CO2 incubator at 37° C. After 72 h, the number of metabolically active cells was determined by MTT assay. Absorbance of each well was measured at 550 nm on a Tecan Sunrise reader. Dose-response curves for growth inhibition were generated as a percentage of untreated control. IC50 was determined by nonlinear regression (Prism, Graph Pad Software, Inc.).
On the technique in general: Tetrazolium dyes change colour on reduction, which living cells bring about.

In the next test the target is T1, purified tubulin (Sus scrofa, UniProt P02550+P02554).
T1 construct: purchased Cytoskeleton #BK006P
Briefly: Tubulin polymerisation assay (CytoDYNAMIX Screen kit, absorbance at 340 nm). The class given is biochemical. Particulars: for inhibition at 5 µM: read-out: % Inhibition of tubulin polymerization at 5 μM; for IC50: tubulin polymerization. How it is done: The polymerization of purified tubulin was monitored spectrophotometrically by the change in absorbance at 340 nm using the CytoDYNAMIX Screen kit (#BK006P, Cytoskeleton) according to the instructions of the manufacturer. […] The absorbance was measured at 1 minute intervals for 60 minutes. The test compound was added to a 4 mg/ml tubulin solution containing 10% glycerol and 1 mM GTP in Buffer 1 (Buffer 1: 80 mM PIPES; 2 mM MgCl2; 0.5 mM EGTA, pH 6.9). Increased absorbance indicates increase in microtubule formation from tubulin heterodimers.

Test [1] relates to Endothelial cells (HUVEC). As to the kind of experiment: Neovessels formation inhibition (capillary tube formation on Matrigel). The class given is cell-based. How it is done:
The capability of compounds to inhibit the formation of capillaries was evaluated in vitro. Twenty thousand Endothelial cells (HUVEC) were placed on a Matrigel matrix and allowed to form capillary tubes in the presence or absence of the compounds overnight. The cells were stained with calcein AM, and the effect of the compounds on capillary tube formation was assessed using an inverted fluorescent microscope (Nikon). The reference compound used in this assay AVE-8063 is 3-amino-deoxycombretastatin A-4.

In the next test the test system is HUVEC. As to the kind of experiment: Pre-established vessels disruption (capillary tubes on Matrigel). The class given is cell-based. Particulars: HUVEC tubes formed 5 hours, then compounds overnight. As to the method: To explore the effect of the compounds on pre-established vasculature, twenty thousand cells (HUVEC) were seeded and incubated over Matrigel for 5 hours to allow the capillary tubes to form. Then, compounds were added and incubated overnight. The disappearance of existing vasculature was monitored with fluorescent microscopy.

[2] abbreviates: Homo sapiens, HUVEC on Matrigel, compounds overnight, read-out: Neovessels Formation Inhibition Total Tubule Length IC50.
The mark [3] stands for this setting: Homo sapiens, read-out: Pre-established Vessels Disruption Number of Branch Junctions IC50.
[4] abbreviates: Homo sapiens, read-out: Pre-established Vessels Disruption Total Tubule Length IC50.
[5] abbreviates: Homo sapiens, HUVEC on Matrigel, compounds overnight, read-out: Neovessels Formation Inhibition Number of Branch Junctions IC50.

Where a name gives a salt, the structure may show the parent alone. Read-outs that look alike come from different tables or passages of the source.

T1 sequence (P02554 whole entry): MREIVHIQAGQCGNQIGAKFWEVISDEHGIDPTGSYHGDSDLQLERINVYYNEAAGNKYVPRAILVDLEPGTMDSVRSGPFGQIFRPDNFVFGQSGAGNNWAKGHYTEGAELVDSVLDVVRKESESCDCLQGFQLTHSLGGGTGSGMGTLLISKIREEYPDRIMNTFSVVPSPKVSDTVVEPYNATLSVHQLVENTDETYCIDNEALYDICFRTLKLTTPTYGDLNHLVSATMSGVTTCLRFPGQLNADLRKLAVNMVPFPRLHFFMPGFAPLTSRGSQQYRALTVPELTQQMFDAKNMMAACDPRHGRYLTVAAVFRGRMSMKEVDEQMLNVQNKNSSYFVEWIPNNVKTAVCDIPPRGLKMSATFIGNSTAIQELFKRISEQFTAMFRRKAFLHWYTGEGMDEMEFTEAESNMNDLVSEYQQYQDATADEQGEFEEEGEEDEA
T1 sequence (P02550 whole entry): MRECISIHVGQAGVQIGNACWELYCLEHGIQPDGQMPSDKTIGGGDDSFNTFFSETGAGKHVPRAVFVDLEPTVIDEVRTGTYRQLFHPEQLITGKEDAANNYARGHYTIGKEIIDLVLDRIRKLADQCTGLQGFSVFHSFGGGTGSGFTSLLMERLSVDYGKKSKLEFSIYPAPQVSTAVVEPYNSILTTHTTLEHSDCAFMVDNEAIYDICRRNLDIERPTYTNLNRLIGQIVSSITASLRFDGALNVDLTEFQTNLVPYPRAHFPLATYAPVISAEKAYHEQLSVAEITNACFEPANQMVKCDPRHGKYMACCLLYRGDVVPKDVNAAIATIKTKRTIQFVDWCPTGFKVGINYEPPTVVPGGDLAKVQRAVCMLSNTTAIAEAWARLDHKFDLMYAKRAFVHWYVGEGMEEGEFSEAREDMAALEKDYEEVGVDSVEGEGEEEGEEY

In the case of `CCOc1ccc2c(Cc3cc(OC)c(OCC(F)(F)F)c(OC)c3)cncc2c1O` [Compound 30, 4-(3,5-Dimethoxy-4-(2,2,2-trifluoroethoxy)benzyl)-7-ethoxyisoquinolin-8-ol hydrochloride], the IC50 in the test with K562 cell line (Homo sapiens) was found to be 63.8 nM. The inhibition at 5 µM at purified tubulin (5 μM compound, 4 mg/ml tubulin) came to 21%.

For `CCOc1cc(Cc2cncc3c(O)c(OCC)ccc23)cc(OC)c1OC` [Compound 15, 4-(3-Ethoxy-4,5-dimethoxybenzyl)-7-ethoxyisoquinolin-8-ol hydrochloride], the IC50 in the test on K562 cell line (Homo sapiens) came out at 105 nM; on purified tubulin, 970 nM. Also, at purified tubulin (5 μM compound, 4 mg/ml tubulin), the inhibition at 5 µM was 69%.

Take `CCOc1ccc2c(C(=O)c3cc(OC)c(OCC(C)C)c(OC)c3)cncc2c1OC(C)=O` [Compound 78, 7-Ethoxy-4-(4-isobutoxy-3,5-dimethoxybenzoyl)isoquinolin-8-yl acetate]: the IC50 came out at 7.02 nM in the test on K562 cell line (Homo sapiens), 8.07 nM in test [1] (setting [2]), 11.1 nM with HUVEC (setting [3]) and 19.4 nM in the test on HUVEC (setting [4]).

With `COc1ccc(/C=C\c2cc(OC)c(OC)c(OC)c2)cc1N` [AVE8063, 3-amino-deoxycombretastatin A-4, reference compound], the IC50 stood at 2.71 nM with K562 cell line; 3.12 nM in test [1] (HUVEC on Matrigel, compounds overnight, read-out: Neovessels Formation Inhibition Number of Branch Junctions IC50); 5.33 nM in test [1] (HUVEC on Matrigel, compounds overnight, read-out: Neovessels Formation Inhibition Total Tubule Length IC50); 5.72 nM in the test on HUVEC (read-out: Pre-established Vessels Disruption Number of Branch Junctions IC50); 7.74 nM with HUVEC (read-out: Pre-established Vessels Disruption Total Tubule Length IC50); 1070 nM at purified tubulin. In addition, the “% Inhibition of tubulin polymerization at 5 μM” value on purified tubulin (5 μM compound, 4 mg/ml tubulin) worked out at 71.29%.

On to `CCOc1ccc2c(C(=O)c3cc(OC)c(OC)c(OC)c3)cncc2c1N` [Compound 29, (8-Amino-7-ethoxyisoquinolin-4-yl)(3,4,5-trimethoxyphenyl)methanone hydrochloride], for which the IC50 in the test on K562 cell line (Homo sapiens) stood at 1.64 nM; in test [1] (setting [5]) it was 1.04 nM; in test [1] (setting [2]), 1.47 nM; in the test on HUVEC (setting [3]), 1.78 nM; in the test with HUVEC (setting [4]) it was 2.26 nM; on purified tubulin it was 880 nM. The inhibition at 5 µM on purified tubulin (5 μM compound, 4 mg/ml tubulin) stood at 71.3%.

Take `CC(=O)O[C@H]1C(=O)[C@@]2(C)[C@H]([C@H](OC(=O)c3ccccc3)[C@]3(O)C[C@H](OC(=O)[C@H](O)[C@@H](NC(=O)c4ccccc4)c4ccccc4)C(C)=C1C3(C)C)[C@]1(OC(C)=O)CO[C@@H]1C[C@@H]2O` [Taxol, reference compound]: the half-inhibitory concentration (IC50) with K562 cell line (Homo sapiens) worked out at 6.9 nM; in test [1] (setting [5]), 0.79 nM; in test [1] (setting [2]), 7.16 nM.

In the case of `CCOc1ccc2c(Cc3cc(OC)c(OCCC(C)C)c(OC)c3)cncc2c1O` [Compound 33, 7-Ethoxy-4-(4-(isopentyloxy)-3,5-dimethoxybenzyl)isoquinolin-8-ol hydrochloride], the concentration for half-maximal inhibition (IC50) was 160 nM in the test on K562 cell line (Homo sapiens) and 1310 nM against purified tubulin. Besides, the inhibition at 5 µM on purified tubulin (5 μM compound, 4 mg/ml tubulin) was 59%.

`CCCCOc1c(OC)cc(Cc2cncc3c(O)c(OCC)ccc23)cc1OC` [Compound 38, 4-(4-Butoxy-3,5-dimethoxybenzyl)-7-ethoxyisoquinolin-8-ol hydrochloride]: the 50% inhibitory concentration (IC50) in the test with K562 cell line (Homo sapiens) amounted to 30.4 nM; on purified tubulin it was 1110 nM. The inhibition at 5 µM at purified tubulin (5 μM compound, 4 mg/ml tubulin) was determined as 67.4%.

For `COc1ccc(N(C)c2nc(C)nc3ccccc23)cc1` [Azixa, reference compound], the half-maximal inhibitory concentration (IC50) with K562 cell line (Homo sapiens) is 2.15 nM; in test [1] (Homo sapiens, HUVEC, read-out: Neovessels Formation Inhibition Number of Branch Junctions IC50 (nM)) it was 1.38 nM; in test [1] (Homo sapiens, HUVEC, read-out: Neovessels Formation Inhibition Total Tubule Length IC50 (nM)), 2.16 nM; in the test with HUVEC (setting [3]), 3.75 nM; with HUVEC (setting [4]) it was 6.01 nM.

With `COc1ccc(/C=C\c2cc(OC)c(OC)c(OC)c2)cc1O` [Combretastatin, reference compound], the half-inhibitory concentration (IC50) with K562 cell line (Homo sapiens) is 2.07 nM. In addition, on purified tubulin (5 μM compound, 4 mg/ml tubulin), the inhibition at 5 µM came to 68.9%.

In the case of `CCCOc1c(OC)cc(C(=O)c2cncc3c(N)c(OCC)ccc23)cc1OC` [Compound 66, (8-Amino-7-ethoxyisoquinolin-4-yl)(3,5-dimethoxy-4-propoxyphenyl)methanone hydrochloride], the IC50 is 4.27 nM in the test with K562 cell line (Homo sapiens); 2.23 nM in test [1] (setting [5]); 3.58 nM in test [1] (setting [2]); 3.76 nM in the test with HUVEC (setting [3]); 5.47 nM in the test with HUVEC (setting [4]).

Consider `CCOc1ccc2c(Cc3cc(OC)c(OC)c(OC)c3)cncc2c1NS(N)(=O)=O` [Compound 8, 7-Ethoxy-4-(3,4,5-trimethoxy-benzyl)isoquinolin-8-yl]-sulfamide hydrochloride], for which the IC50 in the test on K562 cell line (Homo sapiens) came out at 53.4 nM; in test [1] (setting [5]), 100 nM; in test [1] (setting [2]), 138 nM.

Turning to `CCOc1ccc2c(C(=O)c3cc(OC)c(OC)c(OC)c3)cncc2c1NC(=O)CN` [Compound 112, 2-Amino-N-(7-ethoxy-4-(3,4,5-trimethoxybenzoyl)isoquinolin-8-yl)acetamide], the IC50 in the test with K562 cell line (Homo sapiens) is 7.9 nM; in test [1] (setting [5]) it was 16.4 nM; in test [1] (setting [2]), 31.3 nM; in the test with HUVEC (setting [3]) it was 68.5 nM; in the test on HUVEC (setting [4]), 62.8 nM.

In the test with K562 cell line (Homo sapiens), `CCOc1ccc2c(C(=NO)c3cc(OC)c(OC)c(OC)c3)cncc2c1` [Compound 41, (7-ethoxyisoquinolin-4-yl)(3,4,5-trimethoxyphenyl)methanone oxime hydrochloride] yielded a half-inhibitory concentration (IC50) of 123 nM.

`CCOc1ccc2c(Cc3cc(OC)c(CC)c(OC)c3)cncc2c1O` [Compound 73, 7-Ethoxy-4-(4-ethyl-3,5-dimethoxybenzyl)isoquinolin-8-ol hydrochloride] came in with an IC50 in the test on K562 cell line (Homo sapiens) of 335 nM.

In the test with K562 cell line (Homo sapiens), `CCOc1ccc2c(Cc3cc(OC)c(N4CCCC4)c(OC)c3)cncc2c1O` [Compound 76, 4-(3,5-Dimethoxy-4-(pyrrolidin-1-yl)benzyl)-7-ethoxyisoquinolin-8-ol hydrochloride] showed an IC50 of 312 nM.

For the molecule `CCOc1ccc2c(C(=O)c3cc(OC)c(OC)c(OC)c3)cncc2c1NC(=O)[C@@H](N)Cc1ccccc1` [Compound 114, (S)-2-Amino-N-(7-ethoxy-4-(3,4,5-trimethoxybenzoyl)isoquinolin-8-yl)-3-phenylpropanamide dihydrochloride], in the test with K562 cell line (Homo sapiens), the concentration for half-maximal inhibition (IC50) is 92.6 nM.

Consider `COc1ccc2c(C(=O)c3cc(OC)c(OC)c(OC)c3)cncc2c1` [Compound 28, (7-Methoxyisoquinolin-4-yl)(3,4,5-trimethoxyphenyl)methanone hydrochloride], for which the IC50 in the test with K562 cell line (Homo sapiens) came to 42.1 nM. The inhibition at 5 µM on purified tubulin (5 μM compound, 4 mg/ml tubulin) is 44.5%.

In turn, `CCOc1ccc2c(Cc3cc(Br)c(OC)c(OC)c3)cncc2c1O` [Compound 71, 4-(3-Bromo-4,5-dimethoxybenzyl)-7-ethoxyisoquinolin-8-ol hydrochloride] had an IC50 in the test on K562 cell line (Homo sapiens) of 26 nM.

`CCOc1ccc2c(Cc3cc(OC)c(OCC)c(OC)c3)cncc2c1OC` [Compound 46, 7-Ethoxy-4-(4-ethoxy-3,5-dimethoxybenzyl)-8-methoxyisoquinoline hydrochloride]: in the test on K562 cell line (Homo sapiens), the IC50 was 688 nM.

In the case of `CCOc1ccc2c(Cc3cc(OC)c(OCC(C)C)c(OC)c3)cncc2c1N` [Compound 31, 4-(4-Isobutoxy-3,5-dimethoxybenzyl)-7-ethoxyisoquinolin-8-amine dihydrochloride], the figures for the 50% inhibitory concentration (IC50) in the test with K562 cell line (Homo sapiens) and against purified tubulin were 37 nM and 1540 nM, respectively. The inhibition at 5 µM at purified tubulin (5 μM compound, 4 mg/ml tubulin) was 55.4%.

In the case of `CCOc1ccc2c(Cc3cc(OC)c(NCc4ccccc4)c(OC)c3)cncc2c1O` [Compound 51, 4-(4-(Benzylamino)-3,5-dimethoxybenzyl)-7-ethoxyisoquinolin-8-ol hydrochloride], half-maximal inhibition with K562 cell line (Homo sapiens) (IC50) was put at 741 nM.

Regarding `CCOc1ccc2c(Cc3cc(OC)c(OCC)c([N+](=O)[O-])c3)cncc2c1O` [Compound 74, 7-ethoxy-4-(4-ethoxy-3-methoxy-5-nitrobenzyl)isoquinolin-8-ol hydrochloride], the IC50 in the test with K562 cell line (Homo sapiens) turned out to be 238 nM.

In the case of `CCOc1ccc2c(Cc3cc(OC)c(OCC)c(OC)c3)cncc2c1O` [Compound 14, 4-(4-Ethoxy-3,5-dimethoxybenzyl)-7-ethoxyisoquinolin-8-ol hydrochloride], the IC50 in the test with K562 cell line (Homo sapiens) stood at 30.3 nM; in test [1] (setting [5]) it was 31.1 nM; in test [1] (setting [2]) it was 39.5 nM; against purified tubulin, 1050 nM.
